Measurements from publication PMC7496286, “The Selectivity of Fosfosal for STAT5b over STAT5a is Mediated by Arg566 in the Linker Domain” (Chembiochem, 2020).
Changes are numbered by the printed parent chain.

Legend:
[1] = target: T1, STAT5a SH2 domain (Homo sapiens, UniProt P42229); assay: FP-based competitive binding assay, wild-type STAT5a
T1 construct: His; made in house
T1 sequence (P42229 1-794): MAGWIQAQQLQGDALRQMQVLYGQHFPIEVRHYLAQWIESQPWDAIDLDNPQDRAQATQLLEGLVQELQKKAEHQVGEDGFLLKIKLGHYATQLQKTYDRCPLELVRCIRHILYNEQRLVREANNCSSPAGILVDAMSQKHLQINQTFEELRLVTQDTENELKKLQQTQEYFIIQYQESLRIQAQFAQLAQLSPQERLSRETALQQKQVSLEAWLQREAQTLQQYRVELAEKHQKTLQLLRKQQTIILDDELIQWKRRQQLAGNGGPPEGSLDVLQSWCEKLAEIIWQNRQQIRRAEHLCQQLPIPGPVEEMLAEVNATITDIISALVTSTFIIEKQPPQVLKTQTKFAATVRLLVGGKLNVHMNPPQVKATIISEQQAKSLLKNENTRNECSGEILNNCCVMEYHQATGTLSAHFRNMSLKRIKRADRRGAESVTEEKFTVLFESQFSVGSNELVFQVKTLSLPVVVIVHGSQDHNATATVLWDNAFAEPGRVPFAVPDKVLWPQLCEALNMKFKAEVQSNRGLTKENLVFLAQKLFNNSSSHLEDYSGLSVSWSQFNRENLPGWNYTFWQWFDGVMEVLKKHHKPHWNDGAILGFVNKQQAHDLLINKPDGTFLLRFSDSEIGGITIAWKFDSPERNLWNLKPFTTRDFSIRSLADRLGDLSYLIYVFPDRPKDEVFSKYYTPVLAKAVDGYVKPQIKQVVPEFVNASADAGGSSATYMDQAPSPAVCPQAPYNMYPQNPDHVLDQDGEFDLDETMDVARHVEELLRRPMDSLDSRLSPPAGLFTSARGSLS
Procedure: (§1) Fluorescence polarization assays
(§2) The ability of test compounds to displace 5-carboxyfluorescein-GY(PO3H2)LVLDKW (final concentration: 10 nM) from the SH2 domain of STAT5a/b proteins was analyzed. Proteins […]
(§3) was applied in dilution series comprising the following concentrations: 0.024 – 200 µM […]
(§4) and 0.146 – 600 µM (STAT5b Arg566Glu), respectively. The assays were performed in buffer containing 10 mM Tris, 50 mM NaCl, 1 mM DTT, 1 mM EDTA and 0.1% (v/v) NP-40. Fosfosal was dissolved in DMSO. STAT5a/b proteins and fosfosal were incubated at room temperature for 1 h before adding peptide. Samples were transferred to 384-well microtiter plates and fluorescence polarization was read after a further 1 h incubation time. All measurements were performed in triplicate (n=3), except for STAT5b (n=6) and STAT5a Trp566Arg (n=4). Percent binding was calculated based on a logarithmic curve fit using OriginPro 8G software. IC50 values were converted to Ki values using the published equation.[4] […]
(§5) [4] Z. Nikolovska-Coleska, R. Wang, X. Fang, H. Pan, Y. Tomita, P. Li, P. P. Roller, K.
(§6) Krajewski, N. G. Saito, J. A. Stuckey, S. Wang, Anal. Biochem. 2004, 332, 261-273.

[2] = target: T2, STAT5b-7M (Arg566Trp/Gln636Pro/Met639Asn/Phe640Leu/Met644Lys/Asn664Ser/Tyr679Phe) (Homo sapiens, UniProt P51692, F640L/M639N/M644K/N664S/Q636P/R566W/Y679F); assay: FP-based competitive binding assay, STAT5b-7M
T2 construct: His; made in house
T2 sequence (P51692 1-787 R566W/Q636P/M639N/F640L/M644K/N664S/Y679F): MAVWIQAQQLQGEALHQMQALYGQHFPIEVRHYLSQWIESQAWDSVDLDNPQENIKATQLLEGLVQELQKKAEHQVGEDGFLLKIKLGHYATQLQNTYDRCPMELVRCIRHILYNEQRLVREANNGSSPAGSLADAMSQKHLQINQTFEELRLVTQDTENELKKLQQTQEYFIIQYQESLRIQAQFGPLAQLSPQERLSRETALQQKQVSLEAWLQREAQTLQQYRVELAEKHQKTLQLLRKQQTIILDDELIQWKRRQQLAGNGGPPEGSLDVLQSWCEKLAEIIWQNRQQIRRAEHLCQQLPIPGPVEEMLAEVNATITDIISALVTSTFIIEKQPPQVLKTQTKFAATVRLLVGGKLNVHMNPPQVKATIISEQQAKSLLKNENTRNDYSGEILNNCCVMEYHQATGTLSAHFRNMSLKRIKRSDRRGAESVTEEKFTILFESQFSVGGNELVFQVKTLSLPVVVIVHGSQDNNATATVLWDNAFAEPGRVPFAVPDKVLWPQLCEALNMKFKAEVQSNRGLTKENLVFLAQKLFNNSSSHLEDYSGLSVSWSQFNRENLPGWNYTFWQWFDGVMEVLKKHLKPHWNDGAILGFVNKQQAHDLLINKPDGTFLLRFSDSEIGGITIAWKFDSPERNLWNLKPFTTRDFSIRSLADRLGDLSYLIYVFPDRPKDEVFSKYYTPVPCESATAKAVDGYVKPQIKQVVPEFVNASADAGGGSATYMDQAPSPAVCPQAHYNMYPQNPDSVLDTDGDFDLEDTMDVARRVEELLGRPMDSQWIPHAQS
Procedure: as §1, §2, §3, §4, §5, §6

[3] = target: T3, STAT5b Arg566Glu (Homo sapiens, UniProt P51692, R566E); assay: FP-based competitive binding assay, STAT5b Arg566Glu
T3 construct: His; made in house
T3 sequence (P51692 1-787 R566E): T2 sequence (P51692 1-787 R566W/Q636P/M639N/F640L/M644K/N664S/Y679F) with W566E, P636Q, N639M, L640F, K644M, S664N, F679Y
Procedure: as §1, §2, §3, §4

Row | IC50 ([1]; wild-type STAT5a) [µM] | Ki ([1]; wild-type STAT5a, Ki calculated from IC50 with published equation) [µM] | IC50 ([2]; STAT5b-7M) [µM] | Ki ([2]; STAT5b-7M, Ki calculated from IC50) [µM] | % inhibition at 600 μM ([3]; STAT5b Arg566Glu, up to 600 μM) | SMILES | Kd [1] [µM] | Kd [2] [µM] | Kd [3] [µM]
1 |  |  |  |  |  | CC(C)C[C@H](NC(=O)[C@H](Cc1ccc(OP(=O)(O)O)cc1)NC(=O)CNC(=O)c1ccc2c(c1)C(=O)OC21c2ccc(O)cc2Oc2cc(O)ccc21)C(=O)N[C@H](C(=O)N[C@@H](CC(C)C)C(=O)N[C@@H](CC(=O)O)C(=O)N[C@@H](CCCCN)C(=O)N[C@@H](Cc1c[nH]c2ccccc12)C(=O)O)C(C)C [5-carboxyfluorescein-GY(PO3H2)LVLDKW] | 0.147 | 0.246 | 2
2 | 299 ± 17 | 148 ± 9 | 379 ± 7 | 189 ± 3 | no inhibition | O=C(O)c1ccccc1OP(=O)(O)O [fosfosal, O‐phosphorylated salicylic acid] |  |  | 
